Two molecules from BindingDB's records for doi:10.1016/s0960-894x(00)00282-1 (Novartis Horsham Research Centre, 2000) can be followed below.

A short description of this assay: Compound was evaluated for its inhibitory activity against Serine protease chymotrypsin.

In turn, `CCC1CCN(C(=O)C(Cc2nc3ccccc3s2)NS(=O)(=O)c2cccc3c2NCC(C)(C)C3)CC1` (configuration not stated) [MD805 Analogue] gave a Ki of 4.91 µM.
With `CC1CNc2c(cccc2S(=O)(=O)N[C@@H](Cc2nc3ccccc3s2)C(=O)N2CCC(CCO)CC2)C1` (stereo partly drawn) [3-Methyl-1,2,3,4-tetrahydro-quinoline-8-sulfonic acid {(S)-1-benzothiazol-2-ylmethyl-2-[4-(2-hydroxy-ethyl)-piperidin-1-yl]-2-oxo-ethyl}-amide] the figure was 7.55 µM.
